Measured values as given in publication doi:10.1101/2021.02.17.431525v1 (biorxiv, 2021).

Target: GRB2 (growth factor receptor bound protein 2) (Homo sapiens, UniProt P62993)
Assay: biochemical

Kd: 1530 ± 110 nM
SMILES: CC(C)=CCC[C@](C)(O)[C@H]1CC[C@]2(C)[C@@H]1[C@H](O)C[C@@H]1[C@@]3(C)CC[C@H](O[C@@H]4O[C@H](CO)[C@@H](O)[C@H](O)[C@H]4O[C@@H]4O[C@H](CO)[C@@H](O)[C@H](O)[C@H]4O)C(C)(C)[C@@H]3CC[C@]12C [ginsenoside Rg3]
